In patent US9353072B2, “Antimicrobial substituted thiazoles and methods of use” (Purdue Research Foundation, priority 2012, dated 2016):
≈ marks a conversion by molar mass, not a printed value. Where two headings read alike, the source gives them in different places.

Legend:
[1] = system: MRSA ATCC 43300; test: MIC/MBC broth microdilution, MRSA ATCC 43300; format: cell-based, Staphylococcus aureus; settings: Staphylococcus aureus
Method: (§1) Determination of minimum inhibitory concentration (MIC). The MICs of the lead thiazole compound (compound 1a) and nine derivatives tested against all 18 MRSA strains were determined, in triplicate samples, using the broth microdilution method in accordance with the recommendations contained in the CLSI guidelines.

[2] = system: MRSA ATCC 700699 (NRS1, VISA); test: MIC/MBC broth microdilution, NRS1 (ATCC 700699); format: cell-based; settings: Staphylococcus aureus
Method: as §1

[3] = system: VISA HIP07256 (NRS19); test: MIC/MBC broth microdilution, NRS19 (VISA HIP07256); format: cell-based; settings: Staphylococcus aureus, Table 8, NRS19 (VISA); for MBC: read-out: MBC; for MIC: read-out: MIC
Method: as §1

[4] = system: VISA LIM 3 (NRS37); test: MIC/MBC broth microdilution, NRS37 (VISA LIM 3); format: cell-based; settings: Staphylococcus aureus, Table 8, NRS37 (VISA); for MBC: read-out: MBC; for MIC: read-out: MIC
Method: as §1

[5] = system: NRS107; test: MIC/MBC broth microdilution, NRS107; format: cell-based; settings: Staphylococcus aureus; for MBC: Table 8, read-out: MBC; for MIC: Table 8, read-out: MIC
Method: as §1

[6] = system: NRS119; test: MIC/MBC broth microdilution, NRS119; format: cell-based; settings: Staphylococcus aureus
Method: as §1

[7] = system: MRSA USA400 (NRS123); test: MIC/MBC broth microdilution, NRS123 (USA400); format: cell-based; settings: Staphylococcus aureus, Table 8, NRS123; for MBC: read-out: MBC; for MIC: read-out: MIC
Method: as §1

[8] = system: NRS194; test: MIC/MBC broth microdilution, NRS194; format: cell-based; settings: Staphylococcus aureus; for MBC: Table 8, read-out: MBC; for MIC: Table 8, read-out: MIC
Method: as §1

[9] = system: MRSA NRS384 (USA300); test: MIC/MBC broth microdilution, NRS384 (USA300); format: cell-based; settings: Staphylococcus aureus, Table 8, NRS384; for MBC: read-out: MBC; for MIC: read-out: MIC
Method: as §1

[10] = system: MRSA USA500 (NRS385); test: MIC/MBC broth microdilution, NRS385 (USA500); format: cell-based; settings: Staphylococcus aureus, Table 8, NRS385; for MBC: read-out: MBC; for MIC: read-out: MIC
Method: as §1

[11] = system: VRSA (VRS10); test: MIC/MBC broth microdilution, VRSA (VRS10); format: cell-based, Staphylococcus aureus; settings: Staphylococcus aureus, Table 7, VRSA (VRS10); for MBC: read-out: Minimum Bactericidal Concentration; for MIC: read-out: Minimum Inhibitory Concentration
Method: as §1

[12] = Table 6, MRSA ATCC 43300, 128 μM down to 1.0 μM, 20 hours, read-out: MIC
[13] = Table 6, MRSA ATCC 43300, plating on TSA, 20 hour incubation, read-out: MBC
[14] = Table 7, MRSA (ATCC 43300), read-out: Minimum Bactericidal Concentration
[15] = Table 7, MRSA (ATCC 43300), read-out: Minimum Inhibitory Concentration
[16] = Table 8, ATCC 43300, read-out: MBC
[17] = Table 8, ATCC 43300, read-out: MIC
[18] = Table 7, VISA (NRS1), read-out: Minimum Bactericidal Concentration
[19] = Table 7, VISA (NRS1), read-out: Minimum Inhibitory Concentration
[20] = Table 8, NRS1 (VISA), read-out: MBC
[21] = Table 8, NRS1 (VISA), triplicates, 20 hours, read-out: MIC
[22] = NRS 119 / VISA, Table 7, VISA (NRS119), read-out: Minimum Bactericidal Concentration
[23] = NRS 119 / VISA, Table 7, VISA (NRS119), read-out: Minimum Inhibitory Concentration

SMILES | MIC [1, 12] | MBC [1, 13] | MBC [1, 14] | MIC [1, 15] | MBC [1, 16] | MIC [1, 17] | MBC [2, 18] | MIC [2, 19] | MBC [2, 20] | MIC [2, 21] | MBC [3] | MIC [3] | MBC [4] | MIC [4] | MBC [5] | MIC [5] | MBC [6, 22] | MIC [6, 23] | MBC ([6]; Table 8, NRS119, read-out: MBC) | MIC ([6]; Table 8, NRS119, read-out: MIC) | other results
CC(=O)c1ccc(-c2ccc(-c3nc(C)c(/C(C)=N\NC(=N)N)s3)cc2)cc1 [Compound M11, (Z)-2-(1-(2-(4′-acetyl-[1,1′-biphenyl]-4-yl)-4-methylthiazol-5-yl)ethylidene)hydrazinecarboximidamide] | 4 µM (≈ 1.57 µg/mL) | 8 µM (≈ 3.13 µg/mL) | 8 µM (≈ 3.13 µg/mL) | 8 µM (≈ 3.13 µg/mL) | 16 µM (≈ 6.26 µg/mL) | 16 µM (≈ 6.26 µg/mL) | 32 µM (≈ 12.5 µg/mL) | 8 µM (≈ 3.13 µg/mL) | 16 µM (≈ 6.26 µg/mL) | 16 µM (≈ 6.26 µg/mL) | 32 µM (≈ 12.5 µg/mL) | 32 µM (≈ 12.5 µg/mL) | 16 µM (≈ 6.26 µg/mL) | 8 µM (≈ 3.13 µg/mL) | 32 µM (≈ 12.5 µg/mL) | 16 µM (≈ 6.26 µg/mL) | 32 µM (≈ 12.5 µg/mL) | 16 µM (≈ 6.26 µg/mL) | 32 µM (≈ 12.5 µg/mL) | 16 µM (≈ 6.26 µg/mL) | MBC [7]: 16 µM (≈ 6.26 µg/mL); MIC [7]: 16 µM (≈ 6.26 µg/mL); MBC [8]: 16 µM (≈ 6.26 µg/mL); MIC [8]: 16 µM (≈ 6.26 µg/mL); MBC [9]: 16 µM (≈ 6.26 µg/mL); MIC [9]: 16 µM (≈ 6.26 µg/mL); MBC [10]: 16 µM (≈ 6.26 µg/mL); MIC [10]: 16 µM (≈ 6.26 µg/mL); MBC [11]: 16 µM (≈ 6.26 µg/mL); MIC [11]: 16 µM (≈ 6.26 µg/mL)
C/C(=N/NC(=N)N)c1sc(-c2ccc(-c3ccc(F)cc3)cc2)nc1C [Compound M12, (Z)-2-(1-(2-(4′-fluoro-[1,1′-biphenyl]-4-yl)-4-methylthiazol-5-yl)ethylidene)hydrazinecarboximidamide] | 4 µM (≈ 1.47 µg/mL) | > 16 µM | 16 µM (≈ 5.88 µg/mL) | 4 µM (≈ 1.47 µg/mL) | 16 µM (≈ 5.88 µg/mL) | 16 µM (≈ 5.88 µg/mL) | 8 µM (≈ 2.94 µg/mL) | 4 µM (≈ 1.47 µg/mL) | 8 µM (≈ 2.94 µg/mL) | 8 µM (≈ 2.94 µg/mL) | 16 µM (≈ 5.88 µg/mL) | 16 µM (≈ 5.88 µg/mL) | 16 µM (≈ 5.88 µg/mL) | 8 µM (≈ 2.94 µg/mL) | 16 µM (≈ 5.88 µg/mL) | 8 µM (≈ 2.94 µg/mL) | 16 µM (≈ 5.88 µg/mL) | 16 µM (≈ 5.88 µg/mL) | 32 µM (≈ 11.8 µg/mL) | 16 µM (≈ 5.88 µg/mL) | MBC [7]: 32 µM (≈ 11.8 µg/mL); MIC [7]: 16 µM (≈ 5.88 µg/mL); MBC [8]: 32 µM (≈ 11.8 µg/mL); MIC [8]: 16 µM (≈ 5.88 µg/mL); MBC [9]: 16 µM (≈ 5.88 µg/mL); MIC [9]: 16 µM (≈ 5.88 µg/mL); MBC [10]: 16 µM (≈ 5.88 µg/mL); MIC [10]: 16 µM (≈ 5.88 µg/mL); MBC [11]: 64 µM (≈ 23.5 µg/mL); MIC [11]: 8 µM (≈ 2.94 µg/mL)
C/C(=N/NC(=N)N)c1sc(-c2ccc(-c3ccc(C(F)(F)F)cc3)cc2)nc1C [Compound M13] | 8 µM (≈ 3.34 µg/mL) | 16 µM (≈ 6.68 µg/mL) | 16 µM (≈ 6.68 µg/mL) | 8 µM (≈ 3.34 µg/mL) | 8 µM (≈ 3.34 µg/mL) | 8 µM (≈ 3.34 µg/mL) | 8 µM (≈ 3.34 µg/mL) | 4 µM (≈ 1.67 µg/mL) | 8 µM (≈ 3.34 µg/mL) | 8 µM (≈ 3.34 µg/mL) | 8 µM (≈ 3.34 µg/mL) | 8 µM (≈ 3.34 µg/mL) | 8 µM (≈ 3.34 µg/mL) | 8 µM (≈ 3.34 µg/mL) | 16 µM (≈ 6.68 µg/mL) | 8 µM (≈ 3.34 µg/mL) | 32 µM (≈ 13.4 µg/mL) | 16 µM (≈ 6.68 µg/mL) | 16 µM (≈ 6.68 µg/mL) | 16 µM (≈ 6.68 µg/mL) | MBC [7]: 32 µM (≈ 13.4 µg/mL); MIC [7]: 16 µM (≈ 6.68 µg/mL); MBC [8]: 32 µM (≈ 13.4 µg/mL); MIC [8]: 16 µM (≈ 6.68 µg/mL); MBC [9]: 16 µM (≈ 6.68 µg/mL); MIC [9]: 16 µM (≈ 6.68 µg/mL); MBC [10]: 8 µM (≈ 3.34 µg/mL); MIC [10]: 8 µM (≈ 3.34 µg/mL); MBC [11]: 16 µM (≈ 6.68 µg/mL); MIC [11]: 4 µM (≈ 1.67 µg/mL)
C/C(=N/NC(=N)N)c1sc(-c2ccc(-c3cccc4ccccc34)cc2)nc1C [Compound M14] | 4 µM (≈ 1.6 µg/mL) | 8 µM (≈ 3.2 µg/mL) | 16 µM (≈ 6.39 µg/mL) | 8 µM (≈ 3.2 µg/mL) | 4 µM (≈ 1.6 µg/mL) | 4 µM (≈ 1.6 µg/mL) | 4 µM (≈ 1.6 µg/mL) | 2 µM (≈ 0.799 µg/mL) | 4 µM (≈ 1.6 µg/mL) | 4 µM (≈ 1.6 µg/mL) | 4 µM (≈ 1.6 µg/mL) | 4 µM (≈ 1.6 µg/mL) | 4 µM (≈ 1.6 µg/mL) | 4 µM (≈ 1.6 µg/mL) | 4 µM (≈ 1.6 µg/mL) | 4 µM (≈ 1.6 µg/mL) | 16 µM (≈ 6.39 µg/mL) | 4 µM (≈ 1.6 µg/mL) | 4 µM (≈ 1.6 µg/mL) | 4 µM (≈ 1.6 µg/mL) | MBC [7]: 4 µM (≈ 1.6 µg/mL); MIC [7]: 4 µM (≈ 1.6 µg/mL); MBC [8]: 4 µM (≈ 1.6 µg/mL); MIC [8]: 4 µM (≈ 1.6 µg/mL); MBC [9]: 4 µM (≈ 1.6 µg/mL); MIC [9]: 4 µM (≈ 1.6 µg/mL); MBC [10]: 8 µM (≈ 3.2 µg/mL); MIC [10]: 4 µM (≈ 1.6 µg/mL); MBC [11]: 8 µM (≈ 3.2 µg/mL); MIC [11]: 8 µM (≈ 3.2 µg/mL)
